Measured values published in ChEMBL document CHEMBL1156896, “Synthesis and structure-activity relationships of a series of 3-aryl-4-isoxazolecarboxamides as a new class of TGR5 agonists” (Bioorg Med Chem Lett, 2010).

Experiments:
[1] = Permeability in artificial membrane assay; assay type: ADME, cell membranes; conditions: PAMPA; read-out: permeability
in vitro = conditions: dog, MDCK

- Papp [1]: 31 ×10⁻⁶ cm/s
- Papp (in vitro): 44.8 ×10⁻⁶ cm/s
SMILES: CCN(C(=O)c1c(-c2ccccc2Cl)noc1C)c1cccc(Cl)c1
